The source made the active and inactive calls. No rule for the calls is given here.

The target of this test is Chaperone protein DnaK (Escherichia coli (strain K12)) (UniProt P0A6Y8). The test can be described thus: binders of DnaK substrate-binding domain, biophysical, NMR, chaperone (AID 1033). As to conditions: Purified DnaK SBD, NMR ligand binding.
Chaperone protein DnaK (Escherichia coli (strain K12)), sequence (P0A6Y8 whole entry, looked up, the tested form may be a part): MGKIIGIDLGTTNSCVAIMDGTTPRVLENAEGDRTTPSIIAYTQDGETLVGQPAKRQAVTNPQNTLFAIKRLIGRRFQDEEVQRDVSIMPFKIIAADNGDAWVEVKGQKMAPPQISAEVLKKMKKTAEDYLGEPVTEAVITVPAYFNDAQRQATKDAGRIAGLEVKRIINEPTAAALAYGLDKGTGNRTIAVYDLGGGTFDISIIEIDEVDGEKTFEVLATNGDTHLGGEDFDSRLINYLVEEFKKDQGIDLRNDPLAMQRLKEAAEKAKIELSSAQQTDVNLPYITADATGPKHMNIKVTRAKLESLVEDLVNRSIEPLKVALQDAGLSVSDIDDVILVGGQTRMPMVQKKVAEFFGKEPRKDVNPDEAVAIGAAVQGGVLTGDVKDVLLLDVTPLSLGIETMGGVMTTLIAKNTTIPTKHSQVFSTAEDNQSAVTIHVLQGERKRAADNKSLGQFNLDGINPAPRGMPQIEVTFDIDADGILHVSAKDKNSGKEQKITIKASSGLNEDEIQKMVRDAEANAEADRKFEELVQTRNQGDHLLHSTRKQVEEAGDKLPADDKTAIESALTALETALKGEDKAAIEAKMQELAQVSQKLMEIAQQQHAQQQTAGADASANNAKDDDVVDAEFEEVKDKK
For `COCc1nc(-c2cc(Br)ccc2OC)no1`, the Kd was > 4 mM (inactive).
As for `CC(=O)c1c(C)nc(-c2cccs2)n1O`, the figure is > 4 mM (inactive); as for `COc1cc(-c2coc3cc(OC)c(OC)c(OC)c3c2=O)cc(OC)c1OC`, > 4 mM (inactive); as for `COc1cccc(-c2cc(=O)c3cc(OC)ccc3o2)c1`, > 4 mM (inactive).
In the case of `Nc1ccc(F)cc1F`, the Kd was > 4 mM (inactive).
In the case of `O=C1c2cccnc2C(=O)N1Cc1ccc2c(c1)OCO2`, the Kd is > 4 mM (inactive).
`CSc1cccc(NC(=O)c2c(Cl)cnn2C)c1`: the Kd was > 4 mM (inactive).
With `Oc1ccccc1N1CCCC1`, the Kd is > 4 mM (inactive).
On to `COc1cc(C(=O)O[C@H]2CC[C@@]3(C)[C@@H]4CC[C@H]5[C@]6(O)C[C@H](O)[C@@]7(O)[C@@H](CN8C[C@@H](C)CC[C@H]8[C@@]7(C)O)[C@]6(O)C[C@@]53OC24O)cc(OC)c1OC`, for which the Kd was > 4 mM (inactive).
In the case of `COc1ccc(-c2cc3nc4n(c(=O)c3s2)CCC4)cc1`, the Kd was > 4 mM (inactive).
As for `COc1ccccc1-c1n[nH]c(=O)o1`, the figure is > 4 mM (inactive).
With `O=C1CCC(=O)N1CN1CCOCC1` the figure was > 4 mM (inactive); with `Cn1c([O-])c([N+](C)(C)C)c(=O)n(C)c1=O`, > 4 mM (inactive).
With `O=c1[nH]nnc2sc3c(c12)CCCC3` the figure was > 4 mM (inactive); with `Cc1nn2c3ccccc3nc2n(Cc2ccccc2)c1=O`, > 4 mM (inactive).
On to `Nc1cncc(C(=O)O)c1`, for which the Kd is > 4 mM (inactive).
For the molecule `CC1(C)C2C[C@@H](O)[C@]3(C)C(CC[C@@]4(C)[C@H](c5ccoc5)OC(=O)[C@H]5O[C@]543)[C@@]2(C)[C@@H](O)C[C@H]1O` (some centres undefined), the Kd is > 4 mM (inactive).
For `O=C(O)Cc1csc(-c2ccccc2)n1`, the Kd is > 4 mM (inactive).
For `COc1cc2c(cc1O)CC1c3c(cc(O)c(OC)c3-2)CCN1C` (centres undefined), the Kd is > 4 mM (inactive).
For the molecule `CC(=O)NC12CC3CC(CC(O)(C3)C1)C2`, the Kd is > 4 mM (inactive).
`COc1cc2[nH]c(=S)n(C)c(=O)c2cc1OC`: the Kd was > 4 mM (inactive).
Take `CCNC(=O)CC1Nc2ccccc2NC1=O` (centres undefined): the Kd was > 4 mM (inactive).
With `COC(=O)CSc1n[nH]c(N)n1` the figure was > 4 mM (inactive); with `CC(=O)O[C@]1(C)CC[C@@]23CC1C(C)(C)[C@@H]2CC[C@H]3C`, > 4 mM (inactive).
With `N#CC(O[C@@H]1O[C@H](CO[C@@H]2O[C@H](CO)[C@@H](O)[C@H](O)[C@H]2O)[C@@H](O)[C@H](O)[C@H]1O)c1ccccc1` (some centres undefined) the figure was > 4 mM (inactive).
On to `O=C(c1ccco1)N1CCCN(C(=O)c2ccco2)CC1`, for which the Kd was > 4 mM (inactive).
As for `Cc1nn(C)c(C)c1NC(=S)NC1CCCC1`, the figure is > 4 mM (inactive).
As for `CC(C)=CC(=O)Nc1ccc2c(c1)OCO2`, the Kd was > 4 mM (inactive).
`COCC(=O)/C=C1\Sc2ccccc2N1C`: the Kd was > 4 mM (inactive).
For `NC(=O)c1ccc(N2CCCCC2)c(N)c1`, the Kd is > 4 mM (inactive).
With `O=c1c[n+]([O-])c2ccccc2n1OCc1ccccn1`, the Kd is > 4 mM (inactive).
Consider `NC1=NC(=O)C(CC(=O)Nc2ccccc2F)S1` (centres undefined), for which the Kd was > 4 mM (inactive).
As to `COc1ccc(C)cc1-n1c(-c2ccncc2)n[nH]c1=S`, the Kd is > 4 mM (inactive).
As to `O=c1c(O)cccc2cc(O)c(O)c(O)c12`, the Kd was > 4 mM (inactive).
As for `CC12CC[C@H](CC1=O)C2(C)C`, the Kd was > 4 mM (inactive).
With `CCOC(=O)C(C)c1n[nH]c(=O)c2ccccc12` (centres undefined) the figure was > 4 mM (inactive); with `O=C(NCc1ccco1)c1ccc(Br)s1`, > 4 mM (inactive).
As for `NCCNC(=S)Nc1ccccc1`, the Kd is > 4 mM (inactive).
For `O=C(CO)N/N=C/c1ccccc1F`, the Kd was > 4 mM (inactive).
With `CC(=O)NCC1OCCc2ccccc21` (centres undefined), the Kd is > 4 mM (inactive).
Take `CC(=O)Nc1ccc(S(=O)(=O)NC(N)=O)cc1`: the Kd is > 4 mM (inactive).
As for `CN1C(=O)C(Cc2c[nH]c3ccccc23)C(=O)N(C)C1=O`, the figure is > 4 mM (inactive).
In the case of `Cc1oc2nc3c(c(=O)[nH]c(=O)n3C)n2c1C`, the Kd is > 4 mM (inactive).
`O=C1CNCc2[nH]c3ccccc3c2N1c1ccccc1`: the Kd is > 4 mM (inactive).
As for `CC(=O)NC(O)C(=O)c1ccccc1` (centres undefined), the figure is > 4 mM (inactive); as for `Cn1c(=O)c2c(ncn2CCN)n(C)c1=O`, > 4 mM (inactive); as for `CN1C(=O)N(C)C2NC(=O)NC21` (centres undefined), > 4 mM (inactive).
Consider `Cc1nc(-c2ccccc2)sc1CO`, for which the Kd is > 4 mM (inactive).
As to `C=CC(C1=CC(=O)C(OC)=CC1=O)c1ccccc1` (centres undefined), the Kd is > 4 mM (inactive).
Take `Oc1ccc([C@H]2Oc3cc(O)cc(O)c3C[C@H]2O)cc1`: the Kd is > 4 mM (inactive).
As for `COc1ccc(C)cc1S(=O)(=O)N1CCCCC1`, the Kd is > 4 mM (inactive).
As to `Nc1cccc(-n2cccc2)c1`, the Kd is > 4 mM (inactive).
With `Cc1csc(CCc2nc(C)cs2)n1` the figure was > 4 mM (inactive); with `O=C(Nc1ccccc1CO)c1ccccc1F`, > 4 mM (inactive).
With `COC(=O)Cc1cc(=O)n(-c2ccccc2)[nH]1` the figure was > 4 mM (inactive); with `Nc1ccn(C2O[C@H](CO)[C@@H](O)[C@H]2O)c(=O)n1` (some centres undefined), > 4 mM (inactive); with `NCc1ccc(S(N)(=O)=O)cc1`, > 4 mM (inactive).
Consider `O=C1C(=O)N(CNc2ncccn2)c2ccccc21`, for which the Kd is > 4 mM (inactive).
As to `CC(=O)OC(C)(C)[C@@H]1Cc2cc3ccc(=O)oc3cc2O1`, the Kd is > 4 mM (inactive).
As for `COc1cccc(-c2nc(-c3ccccn3)no2)c1OC`, the Kd is > 4 mM (inactive).
Turning to `CC(NC(=O)c1ccco1)C1CCCO1` (centres undefined), the Kd was > 4 mM (inactive).
For the molecule `O=C(Nc1cnccn1)c1cccs1`, the Kd was > 4 mM (inactive).
In the case of `O=S(=O)(N1CCCCC1)n1nnc2ccccc21`, the Kd entry was “inactive”.
Turning to `CC1Cc2nc(SCC(N)=O)n(C)c(=O)c2S1` (centres undefined), the Kd is > 4 mM (inactive).
With `Cn1cnnc1SCC(=O)Nc1nccs1`, the Kd was > 4 mM (inactive).
On to `C=CCNC(=O)c1nn2cccnc2c1Cl`, for which the Kd was > 4 mM (inactive).
Take `O=c1[nH]c(NCCO)nnc1Cc1ccccc1`: the Kd was > 4 mM (inactive).
On to `Cc1nc(-c2ccc(C(=O)N3CCOCC3)cc2)cs1`, for which the Kd is > 4 mM (inactive).
On to `Cc1ccn(S(=O)(=O)c2ccc(F)cc2)n1`, for which the Kd was > 4 mM (inactive).
As for `COCc1c(CN)cnc(C)c1N`, the Kd is > 4 mM (inactive).
As for `CC(C)(C)CC(=O)NC1=NCCS1`, the Kd was > 4 mM (inactive).
In the case of `O=C(O)c1csc(-c2cccnc2)n1`, the Kd was > 4 mM (inactive).
In the case of `Cc1ccc(/C=C/C(=O)O)cc1S(=O)(=O)NCCO`, the Kd is > 4 mM (inactive).
Regarding `Cc1occc1C(=O)NCc1ccccc1F`, the Kd is > 4 mM (inactive).

The values are drawn from PubChem BioAssay AID1033 (Sanford-Burnham Center for Chemical Genomics, 2008).
